Experimental data from patent publication US20200383985A1, “Inhibitors of Protease Activated Receptor-2” (Endosome Therapeutics, Inc., priority 2017, published 2020).

Test system: mice
Assay: Paw inflammation after intraplantar injection (paw thickness, neutrophil infiltration)
Format: in vivo, mouse
Conditions: WT mice; for paw thickness after intraplantar protease: calipers
Excerpt: Proteases may induce pain by activating PAR2 on nociceptors or other cell types. To determine the contribution of PAR2 on nociceptors, mice were bred expressing PAR2 flanked by LoxP sites (Par2^lox/lox) with mice expressing Cre recombinase targeted to nociceptors using the NaV1.8 promoter (Scn10a) (Stirling L. C. et al., Pain 2005, 113(1-2): 27-36). Par2-NaV1.8 mice lacked immunoreactive PAR2 in NaV1.8-positive nociceptors (FIG. 1A). Whereas 31% (20 of 65) of small-diameter (<25 μm) DRG neurons from WT mice responded to trypsin (100 nM) with increased [Ca^2+]i, only 6% (3 of 51) of neurons from Par2-NaV1.8 mice responded (FIGS. 1B, 11A, and 11B). Nociception was assessed by measuring withdrawal responses to stimulation of the plantar surface of the hindpaw with von Frey filaments. […] In Par2-NaV1.8 mice, the initial responses were maintained, but responses after 120 min were diminished. […] Trypsin-induced inflammation was markedly diminished in Par2-NaV1.8 mice.
Mice were acclimatized to the experimental apparatus, room and investigator for 1-2 h on 2 successive days before studies. Investigators were blinded to the test agents. Mice were sedated (5% isoflurane) for intraplantar injections. Dy4a, Dy4 inact, PS2, PS2 inact (all 50 μM) or vehicle (0.2% DMSO in 0.9% NaCl) (10 μl) was injected into the left hindpaw. After 30 min, trypsin (10 or 80 nM), CS (2.5 or 5 μM) or NE (1.2 or 3.9 μM) (all 10 μl) was injected into the same hindpaw. Mechanical nociceptive responses were evaluated by examining paw withdrawal to stimulation of the plantar surface of the hind-paw with calibrated von Frey filaments. von Frey scores were measured in triplicate to establish a baseline for each animal on the day before experiments, and were then measured for up to 4 h after protease administration. To assess edema, paw thickness was measured at the site of injection between the plantar and the dorsal surfaces of the paw using digital calipers. […] Ly6G/Ly6c was detected with goat anti-rat horseradish peroxidase conjugated multimer incubated for 16 min.

NE: protease (elastase) activating PAR2 by biased mechanisms
paw thickness after intraplantar protease: increased paw thickness

trypsin
neutrophil influx into the paw (after 4 h): stimulated an influx of neutrophils | paw thickness after intraplantar protease: increased paw thickness
